The source of these data is patent US11261230B2, “Synthetic somatostatin receptor ligands” (TEL HASHOMER MEDICAL RESEARCH INFRASTRUCTURE AND SERVICES …, priority 2014, dated 2022).

*1 amine or outer side, *2 acyl side, *3 side chain or, on linkers, in order; H or OH if unused. Where a SMILES comes first, the peptide text is derived from it. Bridges are numbered along the chain shown (N, C = ends). [ ]: non-standard residue; d: D form. The star is where a group is joined. FITC = O=C1OC2(c3ccc(O)cc3Oc3cc(O)ccc32)c2ccc(NC(=S)*)cc21; N(2-mercaptoethyl)Gly = O=C(CN(CCS[*:3])[*:1])[*:2]; GABA = NCCCC(=O)O

The test system of series [1] is BON1 tumor. Kind of series: In vivo bio-distribution by fluorescence imaging in mice bearing BON1 tumor. Also noted: species or system nude mice. Particulars: 10 mg/kg IV. On the procedure:
Pharmacokinetics and bio-distribution of some of the compounds was studied in mouse xenograft models for human cancer. Four pharmaceutical compositions according to the teachings herein, each comprising a single compound according to the teachings herein, were administered intravenously (IV) into lateral tail vein of nude mice bearing BON1 or H116 tumors. Animals were sacrificed at 1, 3, 6 and 24 hours after injection and tumor and normal tissues were excised. Tissue bio-distribution of the compounds were studied using fluorescence imaging techniques.
Experiments were started 7-10 days after the injection, when the tumor diameter was approximately 5-10 mm. […]
Whole-body fluorescence imaging, low-magnification fluorescence microscopy and cellular level fluorescence microscopy methods were used to study tissue biodistribution of the compounds. For these purposes, SZX-12 fluorescence microscope (Olympus, Japan), IX81 inverted fluorescence microscope (Olympus, Japan) equipped with appropriate filter-cubes and digital color camera (DP71, Olympus) were used. Additionally, whole-body fluorescence imaging was performed by WB imaging system (Prizmatix, Israel). Quantitative spectrally-resolved fluorescence imaging was carried out using a spectral imaging (SI) system (SD300, Applied Spectral Imaging, Migdal Ha'Emek, Israel). […]

Series [2] has as its system PANC-1 tumors. Nature of the series: In vivo biodistribution in PANC-1 xenograft mice, Maestro fluorescence imaging of harvested tissue. Particulars: 1 day after administration, tissues as named in the value.
Method: Five different pharmaceutical compositions were prepared, each by dissolving 1 mg of a different Somatostatin receptor ligand in 1 liter PBS.
Solid human-derived tumors were induced in 15 nude mice by subcutaneous injection of a suspension containing ˜5□10^5 human cancer cells (PANC-1) into the flank area of the mice.
2-3 weeks after the injection of the cancer cells, it was observed that the mice developed solid tumors with diameters of approximately 5-10 mm.
0.3 ml of each one of the five pharmaceutical compositions were systemically administered to three of the fifteen xenograft mice by injection into the tail vein using a 30 G needle.
The fifteen mice were sacrificed and from the bodies tumors, pancreas, spleen, kidney and liver were harvested.
The fluorescence of the harvested tissue was determined using the Maestro™ in vivo fluorescence imaging system (Cambridge Research & Instrumentation, Inc., Woburn, Mass., USA).
Series [3] concerns the target T1, human SSTR4 (Homo sapiens, UniProt P31391).
T1 construct: expressed in transfected cells; host or cells: HEK-293, transient transfection, pcDNA 3.1
Kind of series: Binding to transfected HEK cells expressing a single SSTRx subtype, FACS. How it is done: (§1) The affinity of compounds 1-16 to each of the five SSTRx was tested using an in vitro model of transfected cell lines (HEK—human embryonic kidney), each expressing a single human SSTRx subtype. Biological activity assessment of the compounds to define a specific affinity to each subtype was performed by FACS and fluorescence imaging methods.
(§2) Human SSTRx were expressed in the cells by transient transfection. Each SSTR was expressed separately, creating five different cell lines using human gene transcript.
(§3) The transfection process is illustrated in FIG. 1. The transient transfection process was carried out before each experiment. Briefly, HEK cells were cultured in standard cell growth conditions. For testing, the cells were transferred into 96-well plates. The tested compounds were dissolved in DMSO and then diluted in a buffer solution to a final DMSO concentration of 5% as a composition according to the teachings herein. Various amounts of the thus-prepared compositions were added to the cells in medium in the 96-well plates and allowed to incubate for between 1 and 24 hours. Binding was determined using fluorescent microscopy and FACS.
(§4) Qualitative assessment of binding efficiency was done by visual inspection and digital photography using an inverted fluorescent microscope. Quantitative assessment was done using FACS.
(§5) HEK-293 cells (human embryonic kidney) were grown in Dulbecco's modified Eagle's medium (DMEM) supplemented with 4 mM glutamine, 10% fetal bovine serum (FBS) and 100 units/ml penicillin/streptomycin at 37° C./5% carbon dioxide. One day prior to transfection, the cells were trypsinized, counted and plated at a density of 3×10^5 per 35 mm diameter dish. Until 70% confluency, cells were transiently transfected with the pcDNA 3.1 vector bearing the coding region for the human SSTR human somatostatin receptor subtypes SSTR1-SSTR5. Transfections were carried out with JetPei transfection reagent (Polyplus-transfection, NY, USA) according to the manufacturer's recommendation. Briefly, 2 micrograms of plasmid DNA and 6 microliter of JetPei transfection reagent were used for each transfection. Each of the components were resuspended in 100 microliter of 150 mM NaCl, mixed and incubated for 25 minutes at room temperature and after incubation added to cells.
(§6) Cells were then seeded in a 96-well flat-bottom microplate (Costar, Corning, N.Y.) at a concentration of 5×10^4 cells/well. Twelve hours later, the supernatant was removed and replaced with fresh DMEM containing various (in the nM range) concentrations of tested compounds 1-16. The cells were incubated for additional time intervals ranging from 0.5-24 hr. At the end of the incubation period, supernatant was discarded and the cells were washed twice with cold PBS. The plates were examined using IX81 inverted microscope (Olympus, Japan) equipped with […] digital camera. Additionally, a FACS assay was used for quantitative analysis.
(§7) Quantitative assessment of binding affinity of Compounds 1-16 was performed by FACS in the transfected HEK cell model.
(§8) Quantitatively, specific binding affinity was assessed as the percentage of double stained [(GR=green and red indicating transfection)/(R is total red) less (G is green indicating unspecific binding)]: specific binding affinity=[GR/R−G]

The target in series [4] is T2, human SSTR5 (Homo sapiens, UniProt P35346).
T2 construct: expressed in transfected cells; host or cells: HEK-293, transient transfection, pcDNA 3.1
Nature of the series: Binding to transfected HEK cells expressing a single SSTRx subtype, FACS and fluorescence microscopy. How it is done: as §1, §2, §3, §4, §5, §6, §7, §8

Series [5] relates to SSTR1-SSTR5. Particulars: background statement; cited from earlier work.
[6] abbreviates: FACS, transfected HEK, specific binding affinity = percentage double stained [GR/R−G], 0 = no binding detected.
Where [7] appears, read: Table 2 normalized according to the highest binding affinity of that compound.
[8] abbreviates: Table 2 normalized to Compound 1 (=100).

T2 sequence (P35346 whole entry): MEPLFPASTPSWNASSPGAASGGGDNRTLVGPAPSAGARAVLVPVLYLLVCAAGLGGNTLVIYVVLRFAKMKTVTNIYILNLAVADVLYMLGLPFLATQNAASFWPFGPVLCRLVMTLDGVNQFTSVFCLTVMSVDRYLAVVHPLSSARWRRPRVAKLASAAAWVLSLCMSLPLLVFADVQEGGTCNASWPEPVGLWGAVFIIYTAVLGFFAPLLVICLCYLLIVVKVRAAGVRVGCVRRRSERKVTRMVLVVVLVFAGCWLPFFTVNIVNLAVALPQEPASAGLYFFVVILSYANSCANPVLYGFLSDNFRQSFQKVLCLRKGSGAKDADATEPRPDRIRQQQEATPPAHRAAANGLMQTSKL
T1 sequence (P31391 whole entry): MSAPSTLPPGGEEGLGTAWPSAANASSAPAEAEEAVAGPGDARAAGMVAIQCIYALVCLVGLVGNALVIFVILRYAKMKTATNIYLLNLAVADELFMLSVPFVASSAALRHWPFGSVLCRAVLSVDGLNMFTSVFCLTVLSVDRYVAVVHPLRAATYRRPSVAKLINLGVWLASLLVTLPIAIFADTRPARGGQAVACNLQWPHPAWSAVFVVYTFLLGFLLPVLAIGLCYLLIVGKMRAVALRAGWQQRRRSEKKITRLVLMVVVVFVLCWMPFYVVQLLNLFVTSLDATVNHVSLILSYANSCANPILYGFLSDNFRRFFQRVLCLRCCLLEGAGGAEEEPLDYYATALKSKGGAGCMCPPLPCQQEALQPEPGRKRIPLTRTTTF

Regarding `C[C@@H](O)[C@@H]1NC(=O)[C@H](CCCCN)NC(=O)[C@@H](Cc2c[nH]c3ccccc23)NC(=O)[C@H](Cc2c[nH]c3ccccc23)NC(=O)[C@H](Cc2ccc(O)cc2)NC(=O)[C@@H](NC(=O)[C@@H](Cc2ccccc2)NC(=O)CCCNC(=S)Nc2ccc3c(c2)C(=O)OC32c3ccc(O)cc3Oc3cc(O)ccc32)CSSCCN(CC(N)=O)C(=O)[C@H](Cc2ccccc2)NC1=O` [Compound 4, FITC-GABA-D-Phe-Cys-Tyr-Trp-D-Trp-Lys-Thr-Phe-GlyS2] ({FITC-GABA}-[dF]CYW[dW]KTF[N(2-mercaptoethyl)Gly]-NH2; disulfide 2-9), the “Pattern of bio-distribution, order of fluorescence in tissue samples” value in series [1] (fluorescence microscopy, 24 hrs after administration) is listed as “tumor>spleen>pancreas>kidney>liver”. For the molecule `C[C@@H](O)[C@@H]1NC(=O)[C@H](CCCN)NC(=O)[C@@H](Cc2c[nH]c3ccccc23)NC(=O)[C@H](Cc2c[nH]c3ccccc23)NC(=O)[C@H](Cc2ccccc2)NC(=O)[C@@H](NC(=O)[C@@H](Cc2ccccc2)NC(=O)CCCNC(=S)Nc2ccc3c(c2)C(=O)OC32c3ccc(O)cc3Oc3cc(O)ccc32)CSSCCN(CC(N)=O)C(=O)[C@H](Cc2ccccc2)NC1=O` [Compound 3, FITC-GABA-D-Phe-Cys-Phe-Trp-D-Trp-Orn-Thr-Phe-GlyS2], in series [1] (spleen, pancreas and tumor, FIG. 10), the “Time of maximal fluorescence signal in all tissues after administration” value is 6 h. The “Intensity in healthy tissue (in words)” value in series [2] is “undetectable in spleen, kidney and liver tissue”. As for `C[C@@H](O)[C@@H]1NC(=O)[C@H](CCCCN)NC(=O)[C@@H](Cc2c[nH]c3ccccc23)NC(=O)[C@H](Cc2ccccc2)NC(=O)[C@@H](NC(=O)[C@H](CCCNC(=N)N)NC(=O)[C@@H](Cc2ccccc2)NC(=O)CCCNC(=S)Nc2ccc3c(c2)C(=O)OC32c3ccc(O)cc3Oc3cc(O)ccc32)CSSCCN(CC(N)=O)C(=O)[C@H](Cc2ccccc2)NC1=O` [Compound 2, FITC-GABA-D-Phe-Arg-Cys-Phe-D-Trp-Lys-Thr-Phe-GlyS2] ({FITC-GABA}-[dF]RCF[dW]KTF[N(2-mercaptoethyl)Gly]-NH2; disulfide 3-9), the “Intensity in healthy tissue (in words)” value in series [2] is “undetectable in spleen, kidney and liver tissue”.

For `CC(=O)NCCCC[C@@H]1NC(=O)[C@@H](Cc2c[nH]c3ccccc23)NC(=O)[C@H](Cc2c[nH]c3ccccc23)NC(=O)[C@H](Cc2ccccc2)NC(=O)[C@@H](NC(=O)[C@@H](Cc2ccccc2)NC(=O)CCCNC(=S)Nc2ccc3c(c2)C(=O)OC32c3ccc(O)cc3Oc3cc(O)ccc32)CSSCCN(CC(N)=O)C(=O)[C@H](Cc2ccccc2)NC(=O)[C@H]([C@@H](C)O)NC1=O` [Compound 14, FITC-GABA-D-Phe-Cys-Phe-Trp-D-Trp-LysAc-Thr-Phe-GlyS2], the “Relative binding affinity SSTR4” value in series [3] (setting [6]) came out at 3. For the same molecule, in series [3] (setting [7]), the “Adjusted binding affinity SSTR4” value worked out at 1. Further, the “Binding affinity to SSTR4 relative to Compound 1” value in series [3] (setting [8]) is recorded as 13. Besides, in series [4] (setting [6]), the “Relative binding affinity SSTR5” value worked out at 2. The “Adjusted binding affinity SSTR5” value in series [4] (setting [7]) came out at 0.67. In addition, the “Binding affinity to SSTR5 relative to Compound 1” value in series [4] (setting [8]) was determined as 7. Turning to `C[C@@H](O)[C@@H]1NC(=O)[C@H](CCCCN)NC(=O)[C@@H](Cc2c[nH]c3ccccc23)NC(=O)[C@H](Cc2c[nH]c3ccccc23)NC(=O)[C@H](Cc2ccccc2)NC(=O)[C@@H](NC(=O)[C@@H](Cc2ccccc2)NC(=O)CCCNC(=S)Nc2ccc3c(c2)C(=O)OC32c3ccc(O)cc3Oc3cc(O)ccc32)CSSCCN(CC(N)=O)C(=O)[C@H](Cc2ccccc2)NC1=O` [Compound 1, FITC-GABA-DPhe-Cys*-Phe-Trp-DTrp-Lys-Thr-Phe-GlyS2*-NH2, reference compound], the “Intensity in healthy tissue (in words)” value in series [2] is listed as “undetectable in liver tissue”.

“DPhe-Cys*-Phe-DTrp-Lys-Thr-Cys*-Throl [Octreotide]”: the “Affinity of binding to the SSTRx (in words)” value in series [5] is “high-affinity binding to SSTR2, moderate affinity binding to SSTRR3 and SSTR5, and almost no affinity binding to SSTR1 and SSTR4”. As to `CC(C)[C@@H]1NC(=O)[C@H](CCCCN)NC(=O)[C@@H](Cc2c[nH]c3ccccc23)NC(=O)[C@H](Cc2ccc(O)cc2)NC(=O)[C@@H](NC(=O)[C@H](N)Cc2ccc3ccccc3c2)CSSC[C@@H](C(=O)N[C@H](C(N)=O)[C@@H](C)O)NC1=O` [Lanreotide, Napht-Cys*-Tyr-Trp-Lys-Val-Cys*-Thr], the “Affinity of binding to the SSTRx (in words)” value in series [5] was “high-affinity binding to SSTR2, moderate affinity binding to SSTRR3 and SSTR5, and almost no affinity binding to SSTR1 and SSTR4”.
